Data set [1] can be described thus: Measurement of LogP values by HPLC on reversed phase columns (EEC directive 79/831 Annex V.A8). As to conditions: acidic range, 0.1% formic acid in water and acetonitrile as eluent; for chromatographic logP: read-out: logP (HCOOH)[a]. It is filed as physicochemical.
The next data set has as its system Cooperia curticei. Description: Cooperia curticei assay (COOPCU), larval mortality. In kind it is cell-based. As to conditions: Cooperia curticei, 120 h; application rate 20 ppm, after 5 days; read-out: activity (percentage of larval mortality). As for the experimental part:
Cooperia Curticei—Assay (COOPCU)
(§1) Solvent: dimethyl sulfoxide
(§2) To produce a suitable preparation, 10 mg of active compound are dissolved in 0.5 ml solvent, and the concentrate is diluted with “Ringer's solution” to the desired concentration.
Approximately 40 nematode larvae (Cooperia curticei) are transferred into a test tube containing the compound solution.
After 5 days percentage of larval mortality is recorded. 100% efficacy means all larvae are killed; 0% efficacy means no larvae are killed.

A further data set concerns Haemonchus contortus. The experiment in a line: Haemonchus contortus assay (HAEMCO), larval mortality. As to conditions: Haemonchus contortus, 120 h; application rate 20 ppm, after 5 days; read-out: activity (percentage of larval mortality). In kind it is cell-based. As for the experimental part: Haemonchus Contortus—Assay (HAEMCO)
as §1, §2
Approximately 40 larvae of the red stomach worm (Haemonchus contortus) are transferred into a test tube containing compound solution.
After 5 days percentage of larval mortality are recorded. 100% efficacy means all larvae are killed, 0% efficacy means no larvae are killed.

The subject of data set [2] is Nippostrongylus brasiliensis. Description: Nippostrongylus brasiliensis assay (NIPOBR), acetylcholine esterase readout. The conditions noted are these: read-out: activity (reduction of AChE compared to negative control). It is filed as cell-based. As for the experimental part:
Nippostrongylus Brasiliensis—Assay (NIPOBR)
Adult Nippostrongylus brasiliensis were washed with saline buffer containing 100 U/ml penicillin, 0.1 mg/ml streptomycin and 2.5 μg/ml amphotericin B. Test compounds were dissolved in DMSO and worms were incubated in medium in a final concentration of 10 μg/ml (10 ppm) respectively 1 μg/ml (1 ppm). An aliquot of the medium was used to determine the acetylcholine esterase activity in comparison to a negative control. The principle of measuring acetylcholine esterase as readout for anthelmintic activity was described in Rapson et al (1986) and Rapson et al (1987).

Another data set has as its system Meloidogyne incognita. The experiment in a line: Meloidogyne incognita assay (MELGIN), gall formation on salad seedlings. It is filed as in vivo. The conditions noted are these: application rate 20 ppm, after 14 days. As for the experimental part:
Meloidogyne Incognita—Assay (MELGIN)
Solvent: 125.0 parts by weight of acetone
To produce a suitable preparation, 1 part by weight of active compound is mixed with the stated amount of solvent, and the concentrate is diluted with water to the desired concentration.
Vessels are filled with sand, a solution of the active ingredient, a suspension containing eggs and larvae of the southern root-knot nematode (Meloidogyne incognita) and salad seeds. The salad seeds germinate and the seedlings grow. Galls develop in the roots.
After 14 days the nematicidal activity is determined on the basis of the percentage of gall formation. 100% means no galls were found and 0% means the number of galls found on the roots of the treated plants was equal to that in untreated control plants.

Each structure is given as a SMILES string. Like-named read-outs stand apart in the source and are kept apart here.

Broadly, the mortality is the share of the test organisms that died.

In the case of `Cc1cc(-c2ccc(F)cc2)ccc1C(F)(F)CNC(=O)c1ccccc1C(F)(F)F` [Example 38], the chromatographic logP in data set [1] stood at 4.16. Besides, the mortality at 20 ppm in the data set on Cooperia curticei and in the data set on Haemonchus contortus was 100% throughout. Further, the inhibition at 10 µg/mL in data set [2] is at least 75%. The “nematicidal activity (percentage of gall formation)” value in the data set with Meloidogyne incognita was determined as 100%.
Regarding `N#Cc1ccc(-c2ccc(C(F)(F)CNC(=O)c3ccccc3C(F)(F)F)c(Cl)c2)cc1F` [Example 25], the chromatographic logP in data set [1] came out at 3.77. The mortality at 20 ppm in the data set with Cooperia curticei and with Haemonchus contortus was 100% in each case. In addition, the inhibition at 10 µg/mL in data set [2] was at least 75%. For the same molecule, the “nematicidal activity (percentage of gall formation)” value in the data set on Meloidogyne incognita was 100%.
For the molecule `O=C(NCC(F)(F)c1ccc(-c2ccc(F)cc2)cc1C(F)(F)F)c1cccnc1C(F)(F)F` [Example 17, N-(2,2-Difluoro-2-(4′-fluoro-3-(trifluoromethyl)-[1,1′-biphenyl]-4-yl)ethyl)-2-(trifluoromethyl)-nicotinamide], the mortality at 20 ppm with Cooperia curticei and with Haemonchus contortus was 100% throughout. The inhibition at 10 µg/mL in data set [2] is at least 75%. Further, the “nematicidal activity (percentage of gall formation)” value with Meloidogyne incognita is reported as 90%.
Take `O=C(NCC(F)(F)c1ccc(-c2cc(F)cc(F)c2)cc1Cl)c1ccccc1C(F)(F)F` [Example 35]: the chromatographic logP in data set [1] was determined as 4.3. In addition, the mortality at 20 ppm in the data set on Cooperia curticei and with Haemonchus contortus was 100% throughout. Moreover, the inhibition at 10 µg/mL in data set [2] is at least 75%. For the same molecule, the “nematicidal activity (percentage of gall formation)” value with Meloidogyne incognita is on record as 100%.
With `O=C(NCC(F)(F)c1ccc(-c2cc(F)c(F)c(F)c2)cc1Cl)c1ccccc1C(F)(F)F` [Example 32], the chromatographic logP in data set [1] was found to be 4.44. For the same molecule, the mortality at 20 ppm in the data set on Cooperia curticei and in the data set on Haemonchus contortus was 100% in each case. Moreover, the inhibition at 10 µg/mL in data set [2] is at least 75%. For the same molecule, the “nematicidal activity (percentage of gall formation)” value in the data set on Meloidogyne incognita worked out at 100%.
On to `N#Cc1ccc(-c2ccc(C(F)(F)CNC(=O)c3ccccc3C(F)(F)F)c(Cl)c2)cc1` [Example 27], for which the chromatographic logP in data set [1] was determined as 3.62. The mortality at 20 ppm with Cooperia curticei and in the data set with Haemonchus contortus was 100% throughout. Moreover, in data set [2], the inhibition at 10 µg/mL was at least 75%. For the same molecule, in the data set with Meloidogyne incognita, the “nematicidal activity (percentage of gall formation)” value is 100%.
`O=C(NCC(F)(F)c1ccc(-c2ccc(F)cc2)cc1Cl)c1ccccc1C(F)(F)F` [Example 3, N-[2-[2-chloro-4-(4-fluorophenyl)phenyl]-2,2-difluoro-ethyl]-2-(trifluoromethyl)benzamide]: in data set [1], the “logP (HCOOH)[a]” value worked out at 4.10 and the chromatographic logP was found to be 4.14. Besides, in the data set on Cooperia curticei, the mortality at 20 ppm worked out at 100%. Further, the mortality at 20 ppm in the data set with Haemonchus contortus is 100%. Moreover, the inhibition at 10 µg/mL in data set [2] (10 μg/ml, adult worms) is at least 75%.
On to `O=C(NCC(F)(F)c1ccc(-c2ccc(Cl)cc2)cc1Cl)c1ccccc1C(F)(F)F` [Example 1], for which the chromatographic logP in data set [1] turned out to be 4.58. The mortality at 20 ppm with Cooperia curticei and in the data set with Haemonchus contortus was 100% each time. In data set [2] (10 μg/ml, adult worms), the inhibition at 10 µg/mL is at least 75%.
In the case of `O=C(NCC(F)(F)c1ccc(-c2ccc(F)c(F)c2)cc1Cl)c1ccccc1C(F)(F)F` [Example 33], the chromatographic logP in data set [1] came to 4.26. The mortality at 20 ppm in the data set on Cooperia curticei and with Haemonchus contortus was 100% throughout. The inhibition at 10 µg/mL in data set [2] was at least 75%.

(Values after patent US20170320848A1, “COMPOUNDS FOR USE IN ANTHELMINTHIC TREATMENT” (Bayer Animal Health GMBH, priority 2014, published 2017).)
